Experiment [1] concerns the target T1, rat SSAO protein (Rattus norvegicus, UniProt O08590).
T1 construct: Eli Lilly (provided, not a catalogue product)
T1 sequence (O08590 1-763): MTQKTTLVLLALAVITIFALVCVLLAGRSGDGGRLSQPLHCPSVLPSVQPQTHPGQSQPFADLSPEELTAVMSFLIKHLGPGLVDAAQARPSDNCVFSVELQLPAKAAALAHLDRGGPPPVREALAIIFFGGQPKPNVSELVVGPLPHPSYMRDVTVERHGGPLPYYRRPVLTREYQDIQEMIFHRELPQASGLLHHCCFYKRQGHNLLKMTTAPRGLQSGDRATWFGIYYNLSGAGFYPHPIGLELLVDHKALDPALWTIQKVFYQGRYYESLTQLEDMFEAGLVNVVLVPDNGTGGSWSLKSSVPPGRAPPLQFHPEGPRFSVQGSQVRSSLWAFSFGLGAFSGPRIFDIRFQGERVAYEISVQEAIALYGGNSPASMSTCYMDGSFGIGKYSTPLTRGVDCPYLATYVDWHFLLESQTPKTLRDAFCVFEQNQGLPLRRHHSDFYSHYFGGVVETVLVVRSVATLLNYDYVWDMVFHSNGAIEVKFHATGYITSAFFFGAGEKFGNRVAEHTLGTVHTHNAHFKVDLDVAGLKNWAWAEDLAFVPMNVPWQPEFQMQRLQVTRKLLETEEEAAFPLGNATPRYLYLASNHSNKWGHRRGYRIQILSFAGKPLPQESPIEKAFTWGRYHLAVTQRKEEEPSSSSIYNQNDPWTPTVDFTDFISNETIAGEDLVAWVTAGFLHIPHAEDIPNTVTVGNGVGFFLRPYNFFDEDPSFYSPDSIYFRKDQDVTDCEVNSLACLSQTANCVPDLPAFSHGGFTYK
The experiment can be described thus: In vitro inhibitory activity on SSAO/VAP-1 (MAO-Glo assay), rat. Type of experiment: biochemical. On the procedure:
(§1) This assay was used to evaluate the in vitro inhibitory activity of the compounds on SSAO/VAP-1 of different species. Recombinant human SSAO protein, mouse SSAO protein or rat SSAO protein (provided by Eli Lilly) were used. The enzyme activity detection kit, MAO-Glo Assay kit (V1402) was purchased from Promega. Enzyme reaction buffer (50 mM HEPES, 120 mM NaCl, 5 mM KCl, 2 mM CaCl2, 1.4 mM MgCl2, 0.001% Tween-20, pH7.4) was prepared. The test compound was dissolved in DMSO and diluted by 3-fold concentration in gradient. The final concentration of test compound in a 10 μL reaction system was 1 μM to 0.05 nM when SSAO was detected. The content of DMSO in the detection reaction was 1%. After the solution of test compound in DMSO was diluted in the enzyme reaction buffer at a volume ratio of 1:25, 2.5 μL of which was added to each well of detection plate, two replicates for each concentration. 5 μL of SSAO protein diluted in the enzyme reaction buffer was added to each well, the final concentration of which was 10 nM to 80 nM in 10 μL reaction system. The mixture was incubated at room temperature for 10 minutes. 2.5 μL of the reaction substrate diluted in the enzyme reaction buffer was added to each well, the final concentration of which was 10 μM in 10 μL reaction system. After the mixture was reacted at room temperature for 120 minutes, 10 μL of detection reagent was added to each well. The reaction solution was incubated for 20 minutes at room temperature, and the plate was read with Synergy Neo 2 for detection. The value was converted into inhibition rate by the following formula: Inhibition rate=(Signalpositive−Signaltest)/(Signalpositive−Signalnegative)×100%
(§2) Signalpositive was positive control without test compound. Signalnegative was negative control without test compound and SSAO enzyme, and Signaltest was detection value of each compound at different concentrations. IC50 value was calculated by using 4 parameter curve fitting.

Experiment [2] addresses T2, mouse SSAO protein (Mus musculus, UniProt O70423).
T2 construct: Eli Lilly (provided, not a catalogue product)
T2 sequence (O70423 1-765): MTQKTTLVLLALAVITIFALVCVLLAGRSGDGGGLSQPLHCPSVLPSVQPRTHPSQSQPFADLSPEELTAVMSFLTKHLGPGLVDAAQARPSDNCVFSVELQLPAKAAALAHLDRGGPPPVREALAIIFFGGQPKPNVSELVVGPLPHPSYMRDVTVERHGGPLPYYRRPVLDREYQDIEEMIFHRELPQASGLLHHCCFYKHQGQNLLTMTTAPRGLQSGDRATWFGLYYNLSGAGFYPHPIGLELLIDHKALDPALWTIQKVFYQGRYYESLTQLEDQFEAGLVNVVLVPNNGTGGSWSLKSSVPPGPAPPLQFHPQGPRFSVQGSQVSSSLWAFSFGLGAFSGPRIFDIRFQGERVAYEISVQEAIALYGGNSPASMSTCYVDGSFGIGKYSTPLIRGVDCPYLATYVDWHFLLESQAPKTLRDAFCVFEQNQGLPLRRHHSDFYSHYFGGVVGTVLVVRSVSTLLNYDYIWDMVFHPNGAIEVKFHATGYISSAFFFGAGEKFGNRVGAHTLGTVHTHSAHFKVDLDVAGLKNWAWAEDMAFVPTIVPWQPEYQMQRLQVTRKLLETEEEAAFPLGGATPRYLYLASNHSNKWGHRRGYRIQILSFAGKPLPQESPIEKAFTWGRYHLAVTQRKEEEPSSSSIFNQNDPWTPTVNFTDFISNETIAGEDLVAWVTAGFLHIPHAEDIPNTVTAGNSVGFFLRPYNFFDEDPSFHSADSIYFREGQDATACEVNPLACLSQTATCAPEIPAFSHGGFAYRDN
The experiment can be described thus: In vitro inhibitory activity on SSAO/VAP-1 (MAO-Glo assay), mouse. The experiment is classed as biochemical. On the procedure:
as §1, §2

Experiment [3] has as its system LPS-induced inflammatory disease model in rats. The experiment can be described thus: LPS-induced ocular inflammation model: protein concentration and cell number in aqueous humor. As to conditions: rat, LPS footpad injection, 6 mg/kg oral 1 h before induction, 24 hours after induction, mean±SEM. The experiment is classed as in vivo. On the procedure: 22 rats (7-8 weeks, 220-250 g) were divided into 3 groups, which were control group (6), model group (8) and compound treated group (8). For the model group and compound treated group, ocular inflammation was induced by a single injection of 8 μg/100 μL lipopolysaccharide (Sigma-Aldrich-L2880) into the footpad. The rats were grouped according to their body weight 1 h before induction. Example 4 compound (6 mg/kg, 10 mL/kg) or vehicle (10 mL/kg) were orally administered respectively. 24 hours after induction, the anterior aqueous humor was collected and the eyeballs were removed to dissect the retina. Ocular inflammation was quantitatively evaluated by measuring the protein concentration and cell number in the aqueous humor. qPCR method was used to verify changes in the expression of ocular retinal inflammation-related genes.
10 μL of aqueous humor was diluted in 40 μL of PBS and mixed, then 25 μL of mixture was mixed with 75 μL of PBS, and centrifuged at 300 g for 5 min at 4° C. 55 μL of supernatant was aspirated carefully and the protein concentration was determined according to the method described in the BCA Protein Assay Kit (Pierce-23227); after the remaining sample was resuspended, 40 μL of cell suspension was added into 100 μL of 1% FBS/PBS to analyze and count live cells using NovoCyte 3130 flow cytometry after excluding cell debris.

Each structure is given as a SMILES string.

For `COC1CC2CC1CN2c1ncc(OC/C(=C/F)CN)cn1` (centres unmarked) [Example 2], the IC50 in experiment [1] and in experiment [2] was below 100 nM each time.
With `COC1CC2CCC(C1)N2c1ncc(OC/C(=C/F)CN)cn1` (centres unmarked) [Example 12], the IC50 in experiment [1] and in experiment [2] was below 100 nM in each case.
On to `NC/C(=C\F)COc1cnc(N2CCN(C3COC3)CC2)nc1` [Example 4, (E)-3-fluoro-2-(((2-(4-(oxbutan-3-yl)piperazin-1-yl)pyrimidin-5-yl)oxo)methyl)prop-2-en-1-amine], for which the “cell number in aqueous humor” value in experiment [3] (model group 48.28±21.46) is on record as 5.07±0.80 *10^4 cell/mL. Further, the “protein concentration in aqueous humor” value in experiment [3] (model group 9730.04±1232.30) is 7275.44 ± 622.66 µg/mL. For the same compound, the IC50 in experiment [1] and in experiment [2] was below 100 nM in each case.

In general, IC50 refers to the concentration that gives 50% inhibition.
